Test results published in ChEMBL document CHEMBL5665443, “Enzyme Inhibitor Single Concentration assay results for EUbOPEN Chemogenomics Library” (2024).

What was measured:
[1] = biological target: Methyl-CpG-binding domain protein 4 (Homo sapiens) (UniProt O95243); conditions: Hit No;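 note: MBD4 activity read as fluorescence at 594 nm from cleavage and release of a quenched duplex DNA oligonucleotide, with APE1 coupled to incise the strand and raise turnover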
Description: Inhibition of MBD4 by quantifying inhibition of MBD4-mediated cleavage and dissociation of quenched duplex DNA oligonucleotides, measured as fluorescence at 594 nm. To generate a functional strand incision and increase turn-over this assay is coupled to APE1.

[2] = biological target: DNA-3-methyladenine glycosylase (Homo sapiens) (UniProt P29372); conditions: Compound Concentration 10.0 uM, Hit No;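 note: enzyme assay where MPG cuts a quenched duplex DNA oligonucleotide probe, paired with APE1 for strand incision and turnover, read as fluorescence at 594 nm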
Description: Inhibition of MPG by quantifying inhibition of MPG-mediated cleavage and dissociation of quenched duplex DNA oligonucleotides, measured as fluorescence at 594 nm. To generate a functional strand incision and increase turn-over this assay is coupled to APE1.

[3] = biological target: T1, Adenine DNA glycosylase (Homo sapiens) (UniProt Q9UIF7); conditions: Hit No;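 note: human MUTYH activity read as 594 nm fluorescence from cleavage and release of a quenched DNA duplex, coupled with APE1 for strand incision, lower signal meaning inhibition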
T1 sequence (whole entry): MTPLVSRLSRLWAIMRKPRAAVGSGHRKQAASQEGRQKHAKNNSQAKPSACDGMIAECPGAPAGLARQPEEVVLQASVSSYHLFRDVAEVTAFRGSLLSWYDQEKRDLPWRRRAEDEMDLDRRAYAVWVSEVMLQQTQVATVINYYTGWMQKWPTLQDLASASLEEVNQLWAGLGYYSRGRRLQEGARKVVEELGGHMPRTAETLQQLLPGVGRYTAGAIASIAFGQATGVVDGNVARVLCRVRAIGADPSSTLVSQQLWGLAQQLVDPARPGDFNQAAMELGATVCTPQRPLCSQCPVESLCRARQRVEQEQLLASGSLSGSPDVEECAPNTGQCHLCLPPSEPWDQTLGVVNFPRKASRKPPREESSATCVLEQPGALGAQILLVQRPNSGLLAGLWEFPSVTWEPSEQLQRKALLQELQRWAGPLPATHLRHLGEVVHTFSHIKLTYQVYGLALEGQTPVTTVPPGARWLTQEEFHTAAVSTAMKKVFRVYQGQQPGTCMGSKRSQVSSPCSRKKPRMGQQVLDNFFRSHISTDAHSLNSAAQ
Description: Inhibition of MUTYH by quantifying inhibition of MUTYH-mediated cleavage and dissociation of quenched duplex DNA oligonucleotides, measured as fluorescence at 594 nm. To generate a functional strand incision and increase turn-over this assay is coupled to APE1.

[4] = biological target: Endonuclease 8-like 1 (Homo sapiens) (UniProt Q96FI4); conditions: Hit No;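 note: fluorescence at 594 nm from quenched duplex DNA oligonucleotides released by NEIL1 cleavage and strand separation, reported as reduction of this enzyme activity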
Description: Inhibition of NEIL1 by quantifying inhibition of NEIL1-mediated cleavage and dissociation of quenched duplex DNA oligonucleotides, measured as fluorescence at 594 nm.

[5] = biological target: T2, Endonuclease 8-like 2 (Homo sapiens) (UniProt Q969S2); conditions: Compound Concentration 10.0 uM, Hit No;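 note: fluorescence at 594 nm reports NEIL2 cutting and release of a quenched double-stranded DNA oligo substrate, reduced signal read as inhibition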
T2 sequence (whole entry): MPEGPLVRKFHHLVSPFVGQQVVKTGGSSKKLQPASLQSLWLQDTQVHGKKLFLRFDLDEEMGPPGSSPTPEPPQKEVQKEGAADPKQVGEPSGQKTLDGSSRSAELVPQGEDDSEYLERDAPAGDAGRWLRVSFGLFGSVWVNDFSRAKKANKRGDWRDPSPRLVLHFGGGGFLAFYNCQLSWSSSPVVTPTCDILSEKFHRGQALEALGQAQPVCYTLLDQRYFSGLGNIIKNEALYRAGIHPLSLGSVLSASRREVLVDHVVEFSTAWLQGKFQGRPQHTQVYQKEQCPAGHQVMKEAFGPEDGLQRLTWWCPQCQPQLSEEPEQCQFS
Description: Inhibition of NEIL2 by quantifying inhibition of NEIL2-mediated cleavage and dissociation of quenched duplex DNA oligonucleotides, measured as fluorescence at 594 nm.

[6] = biological target: T3, Endonuclease III-like protein 1 (Homo sapiens) (UniProt P78549); conditions: Hit No;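 note: enzyme assay tracking NTHL1 cutting and release of a quenched double-stranded DNA oligo substrate, read as fluorescence at 594 nm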
T3 sequence (whole entry): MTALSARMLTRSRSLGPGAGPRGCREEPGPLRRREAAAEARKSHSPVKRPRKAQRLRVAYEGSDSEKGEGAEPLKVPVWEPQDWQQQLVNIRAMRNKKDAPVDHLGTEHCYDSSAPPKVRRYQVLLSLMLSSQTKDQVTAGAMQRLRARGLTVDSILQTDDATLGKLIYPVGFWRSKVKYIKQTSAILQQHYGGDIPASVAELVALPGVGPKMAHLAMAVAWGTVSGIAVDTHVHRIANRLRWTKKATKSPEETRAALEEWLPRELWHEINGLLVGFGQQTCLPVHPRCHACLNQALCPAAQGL
Description: Inhibition of NTHL1 by quantifying inhibition of NTHL1-mediated cleavage and dissociation of quenched duplex DNA oligonucleotides, measured as fluorescence at 594 nm.

[7] = biological target: N-glycosylase/DNA lyase (Homo sapiens) (UniProt O15527); conditions: Hit No;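 note: OGG1 cleavage of a quenched duplex DNA oligonucleotide, coupled to APE1 for strand incision, read as fluorescence at 594 nm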
Description: Inhibition of OGG1 by quantifying inhibition of OGG1-mediated cleavage and dissociation of quenched duplex DNA oligonucleotides, measured as fluorescence at 594 nm. To generate a functional strand incision and increase turn-over this assay is coupled to APE1.

[8] = biological target: T4, Single-strand selective monofunctional uracil DNA glycosylase (Homo sapiens) (UniProt Q53HV7); conditions: Hit No;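 note: enzymatic SMUG1 assay coupled with APE1, reading fluorescence at 594 nm released when a quenched double-stranded DNA oligonucleotide substrate is cleaved and separated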
T4 sequence (whole entry): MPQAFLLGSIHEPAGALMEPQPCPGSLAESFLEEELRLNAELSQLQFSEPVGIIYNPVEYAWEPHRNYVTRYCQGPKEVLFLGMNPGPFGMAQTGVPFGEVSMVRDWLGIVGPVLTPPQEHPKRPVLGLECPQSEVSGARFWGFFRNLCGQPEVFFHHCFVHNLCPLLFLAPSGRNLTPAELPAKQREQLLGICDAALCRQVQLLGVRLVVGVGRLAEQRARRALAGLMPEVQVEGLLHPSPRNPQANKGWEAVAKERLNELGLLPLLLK
Description: Inhibition of SMUG1 by quantifying inhibition of SMUG1-mediated cleavage and dissociation of quenched duplex DNA oligonucleotides, measured as fluorescence at 594 nm. To generate a functional strand incision and increase turn-over this assay is coupled to APE1.

[9] = biological target: G/T mismatch-specific thymine DNA glycosylase (Homo sapiens) (UniProt Q13569); conditions: Hit No;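 note: human TDG cleavage of quenched duplex DNA oligonucleotides coupled to APE1, strand release read as fluorescence at 594 nm, inhibition of TDG activity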
Description: Inhibition of TDG by quantifying inhibition of TDG-mediated cleavage and dissociation of quenched duplex DNA oligonucleotides, measured as fluorescence at 594 nm. To generate a functional strand incision and increase turn-over this assay is coupled to APE1.

[10] = biological target: Uracil-DNA glycosylase (Homo sapiens) (UniProt P13051); conditions: Hit No;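 note: UNG excision on a quenched double-stranded DNA oligo probe, with APE1 added for strand incision and turnover, read as fluorescence at 594 nm as strands separate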
Chain of Uracil-DNA glycosylase (Homo sapiens) (P13051 whole entry): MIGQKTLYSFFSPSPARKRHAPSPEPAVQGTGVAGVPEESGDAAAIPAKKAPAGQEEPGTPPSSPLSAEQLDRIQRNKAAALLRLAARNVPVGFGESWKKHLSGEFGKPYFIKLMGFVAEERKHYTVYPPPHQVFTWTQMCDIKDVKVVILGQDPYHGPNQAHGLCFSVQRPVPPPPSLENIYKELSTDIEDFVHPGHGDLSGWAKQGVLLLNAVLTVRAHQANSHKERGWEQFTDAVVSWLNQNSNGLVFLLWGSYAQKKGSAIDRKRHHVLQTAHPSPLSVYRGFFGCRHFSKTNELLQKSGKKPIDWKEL
Description: Inhibition of UNG by quantifying inhibition of UNG-mediated cleavage and dissociation of quenched duplex DNA oligonucleotides, measured as fluorescence at 594 nm. To generate a functional strand incision and increase turn-over this assay is coupled to APE1.

Chain of Endonuclease 8-like 1 (Homo sapiens) (Q96FI4 whole entry): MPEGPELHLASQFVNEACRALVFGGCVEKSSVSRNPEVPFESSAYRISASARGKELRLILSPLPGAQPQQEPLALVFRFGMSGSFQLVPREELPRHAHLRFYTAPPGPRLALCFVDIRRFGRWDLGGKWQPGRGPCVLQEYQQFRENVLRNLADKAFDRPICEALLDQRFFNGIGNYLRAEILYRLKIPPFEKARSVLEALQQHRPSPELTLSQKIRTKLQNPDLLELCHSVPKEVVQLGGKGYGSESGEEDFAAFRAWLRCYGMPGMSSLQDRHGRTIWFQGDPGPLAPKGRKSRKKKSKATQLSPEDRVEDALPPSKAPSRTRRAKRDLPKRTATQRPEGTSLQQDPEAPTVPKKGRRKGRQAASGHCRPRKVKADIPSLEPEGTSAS
Chain of Methyl-CpG-binding domain protein 4 (Homo sapiens) (O95243 whole entry, the tested form may be a part): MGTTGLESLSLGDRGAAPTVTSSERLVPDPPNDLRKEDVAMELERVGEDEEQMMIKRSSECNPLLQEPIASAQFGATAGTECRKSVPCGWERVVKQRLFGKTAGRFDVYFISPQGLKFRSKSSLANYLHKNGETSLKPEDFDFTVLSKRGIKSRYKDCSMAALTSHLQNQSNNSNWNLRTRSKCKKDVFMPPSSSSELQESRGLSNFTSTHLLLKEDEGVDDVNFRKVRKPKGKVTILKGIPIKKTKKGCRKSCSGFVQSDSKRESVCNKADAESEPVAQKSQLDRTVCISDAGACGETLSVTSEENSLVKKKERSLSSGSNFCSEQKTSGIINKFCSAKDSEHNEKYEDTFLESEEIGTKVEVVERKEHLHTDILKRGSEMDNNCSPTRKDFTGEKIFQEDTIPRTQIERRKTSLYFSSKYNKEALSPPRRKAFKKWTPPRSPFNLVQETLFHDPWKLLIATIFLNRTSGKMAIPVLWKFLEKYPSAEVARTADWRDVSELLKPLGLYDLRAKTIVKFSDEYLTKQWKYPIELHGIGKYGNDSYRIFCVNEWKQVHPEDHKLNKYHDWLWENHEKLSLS
Chain of G/T mismatch-specific thymine DNA glycosylase (Homo sapiens) (Q13569 whole entry): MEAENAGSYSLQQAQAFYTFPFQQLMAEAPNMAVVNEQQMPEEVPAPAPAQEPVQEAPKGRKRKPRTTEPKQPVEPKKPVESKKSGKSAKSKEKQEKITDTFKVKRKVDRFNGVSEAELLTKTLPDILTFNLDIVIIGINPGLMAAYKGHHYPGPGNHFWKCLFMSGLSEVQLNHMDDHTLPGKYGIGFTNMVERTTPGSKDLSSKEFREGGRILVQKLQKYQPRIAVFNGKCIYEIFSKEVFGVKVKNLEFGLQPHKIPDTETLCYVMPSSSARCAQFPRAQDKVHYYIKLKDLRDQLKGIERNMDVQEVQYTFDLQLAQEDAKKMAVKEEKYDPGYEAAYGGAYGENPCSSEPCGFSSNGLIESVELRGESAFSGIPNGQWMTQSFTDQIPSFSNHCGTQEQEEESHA
Chain of DNA-3-methyladenine glycosylase (Homo sapiens) (P29372 whole entry): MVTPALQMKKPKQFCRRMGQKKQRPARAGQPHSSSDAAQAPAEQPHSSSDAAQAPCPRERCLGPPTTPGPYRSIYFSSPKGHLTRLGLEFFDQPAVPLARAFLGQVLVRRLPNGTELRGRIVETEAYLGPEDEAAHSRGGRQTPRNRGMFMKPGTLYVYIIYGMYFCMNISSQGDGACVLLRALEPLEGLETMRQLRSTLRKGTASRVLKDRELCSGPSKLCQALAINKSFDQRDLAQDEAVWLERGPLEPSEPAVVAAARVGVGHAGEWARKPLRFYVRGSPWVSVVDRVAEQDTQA
Chain of N-glycosylase/DNA lyase (Homo sapiens) (O15527 whole entry): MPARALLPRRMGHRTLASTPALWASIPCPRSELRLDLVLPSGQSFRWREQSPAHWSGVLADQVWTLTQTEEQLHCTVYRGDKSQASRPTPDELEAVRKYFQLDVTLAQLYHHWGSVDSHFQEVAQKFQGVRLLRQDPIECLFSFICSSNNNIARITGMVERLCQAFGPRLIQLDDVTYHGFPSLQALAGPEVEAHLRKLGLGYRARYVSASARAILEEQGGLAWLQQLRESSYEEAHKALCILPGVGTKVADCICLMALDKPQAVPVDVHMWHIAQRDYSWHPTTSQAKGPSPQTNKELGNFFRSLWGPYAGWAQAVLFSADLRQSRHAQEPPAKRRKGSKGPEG

Row | SMILES | inhibition ([1]; Compound Concentration 1.0 uM) [%] | inhibition ([1]; Compound Concentration 10.0 uM) [%] | inhibition [2] [%] | inhibition ([3]; Compound Concentration 1.0 uM) [%] | inhibition ([3]; Compound Concentration 10.0 uM) [%] | inhibition ([4]; Compound Concentration 1.0 uM) [%] | inhibition ([4]; Compound Concentration 10.0 uM) [%] | inhibition [5] [%] | inhibition ([6]; Compound Concentration 1.0 uM) [%] | inhibition ([6]; Compound Concentration 10.0 uM) [%] | inhibition ([7]; Compound Concentration 1.0 uM) [%] | inhibition ([7]; Compound Concentration 10.0 uM) [%] | inhibition ([8]; Compound Concentration 1.0 uM) [%] | inhibition ([8]; Compound Concentration 10.0 uM) [%] | inhibition ([9]; Compound Concentration 1.0 uM) [%] | inhibition ([9]; Compound Concentration 10.0 uM) [%] | inhibition ([10]; Compound Concentration 1.0 uM) [%] | inhibition ([10]; Compound Concentration 10.0 uM) [%]
1 | Cn1cc(Cl)c2c(Oc3c(F)cc(Nc4cc(Cl)nc(N)n4)cc3F)ccnc21 | -4.8 | 64.2 | -1.23 | 1.46 | 40.4 | -7.79 | 4.86 | 2.57 | 8.46 | -1.29 | -2.36 | -9.66 | 17.9 | 27.1 | 48.5 | 53.4 | 2.73 | 11.7
2 | NCCc1c[nH]c2ccc(O)cc12 | – | -6.88 | 21.8 | – | 2.2 | – | 5.88 | 9.75 | – | 1.92 | – | -2.75 | – | -6.38 | – | 20.7 | – | -8.18
3 | CCCOc1ccc2[nH]cc(C3=CCNCC3)c2n1 | – | -0.485 | -2.25 | – | 0.205 | – | 0.306 | -8.25 | – | 7.17 | – | -9.55 | – | -1.82 | – | 11.1 | – | -5.52
4 | O=c1c(Br)ccc2n1C[C@@H]1CNC[C@H]2C1 | – | 13.1 | 3.69 | – | -5.79 | – | 1.79 | -6.72 | – | 8.82 | – | -1.3 | – | 8.97 | – | 22.8 | – | -0.226
5 | N#Cc1c(O)nc(SCc2cccc(F)c2F)nc1C1CC1 | – | 31 | 5.35 | – | 43.4 | – | -3.76 | 6.5 | – | 17.3 | – | 21.3 | – | 14.3 | – | 26.8 | – | -3.9
6 | O=C(Nc1ccc(S(=O)(=O)Nc2nccs2)cc1)C(c1ccccc1)c1ccccc1 | – | 66 | 34 | – | 80.2 | – | -2.51 | -1.11 | – | 17.9 | – | -6.39 | – | 7.67 | – | 52.5 | – | 3.78

The next lines start with the values.

Row | inhibition ([1]; Compound Concentration 1.0 uM) [%] | inhibition ([1]; Compound Concentration 10.0 uM) [%] | inhibition [2] [%] | inhibition ([3]; Compound Concentration 1.0 uM) [%] | inhibition ([3]; Compound Concentration 10.0 uM) [%] | inhibition ([4]; Compound Concentration 1.0 uM) [%] | inhibition ([4]; Compound Concentration 10.0 uM) [%] | inhibition [5] [%] | inhibition ([6]; Compound Concentration 1.0 uM) [%] | inhibition ([6]; Compound Concentration 10.0 uM) [%] | inhibition ([7]; Compound Concentration 1.0 uM) [%] | inhibition ([7]; Compound Concentration 10.0 uM) [%] | inhibition ([8]; Compound Concentration 1.0 uM) [%] | inhibition ([8]; Compound Concentration 10.0 uM) [%] | inhibition ([9]; Compound Concentration 1.0 uM) [%] | inhibition ([9]; Compound Concentration 10.0 uM) [%] | inhibition ([10]; Compound Concentration 1.0 uM) [%] | inhibition ([10]; Compound Concentration 10.0 uM) [%] | SMILES
7 | – | 25.2 | 14.1 | – | 19.4 | – | 3.8 | 7.5 | – | -1.74 | – | 8.63 | – | 4.67 | – | 32.9 | – | -5.76 | O=C(O)CC1CCC2(CC1)CCN(c1cc(OC(F)(F)F)ccc1Cl)CC2
8 | – | 41.7 | 25.3 | – | 36.7 | – | 9.94 | 15.2 | – | 15.4 | – | 16.3 | – | 7.5 | – | 32.7 | – | 4.68 | N/C(=N\C(=O)c1nc(Cl)c(N)nc1N)NCc1ccccc1
9 | – | 15.2 | 1.41 | – | 21.3 | – | 0.834 | -2.48 | – | 12.9 | – | 4.23 | – | -5.22 | – | 16.1 | – | -8.46 | CCc1cc2c(cc1CC)CC(NC[C@H](O)c1ccc(O)c3[nH]c(=O)ccc13)C2
10 | – | -2.75 | 7.62 | – | 6.04 | – | 9.14 | 6.75 | – | -3.94 | – | 0.481 | – | 0.742 | – | 7.26 | – | -7.46 | CCCCCCCCc1ccc(CC[C@](N)(CO)COP(=O)(O)O)cc1
